Measurements published in patent US12391701B2, “Chromene-based compounds, methods and uses thereof” (University of Minho, priority 2019, dated 2025).

Experiments:
[1] = system: Caki-2 cediranib-resistant cells; assay: BrdU proliferation assay, Caki-2 cediranib-resistant; type: cell-based; details: 24 and 48 hours; IC50 and ½IC50; drug-resistant
glioma cell line GL18 = assay: Cell viability MTS assay, GL18; type: cell-based; details: Homo sapiens, 72 hours
Description: (§1) In an embodiment, the antiproliferative activity of compounds MC408, MC409, MC421 and MC406 was further determined against glioma cell lines (U87, GAMG and GL18) and acute leukemia cell lines (HL-60, KG-1 and Jurkat). This was done in order to evaluate if the compounds presented an equally interesting anticancer profile in other cancer cell models. Cell viability was determined using the MTS assay, after exposure of the cells to the respective compounds for 72 hours at appropriate concentration ranges to determine the respective IC50 values.
(§2) In an embodiment, three human breast cancer cell lines Hs578T, MDA-MB-468 and MCF-7, and a normal breast cell line MCF-10A, were obtained from ATCC (American Type Culture Collection). The cancer cell lines were cultured in Dulbecco's modified Eagle medium, 4.5 g/l glucose (DMEM, Gibco) supplemented with 10% heating inactivated Fetal Bovine Serum (FBS, Gibco) and 1% antibiotic solution (Penicillin-Streptomycin, Gibco). The normal cell line was cultured in Dulbecco's Modified Eagle Medium: Nutrient Mixture F-12 (DMEM/F12, Gibco) supplemented with 5% heating inactivated FBS (Gibco), 1% antibiotic solution (Penicillin-Streptomycin, Gibco), 1% steroid hormone (Hydrocortisone, Sigma-Aldrich), 0.1% peptide hormone (Insulin, Sigma-Aldrich) and 0.01% protein complex (Cholera Toxin, Gibco). Two distinct human acute myeloid leukemia (AML) cell lines, HL-60 (FAB M2) and KG-1 (erythroleukemia-FAB M6), and one human lymphoblastic leukemia (ALL) cell line, Jurkat (T cell type), were also used. These three cell lines were obtained from German Collection of Microorganisms and Cell cultures (DMSZ®, Deutsche Sammlung von Mikroorganismen and Zellkulturen in German). Cells were cultured in RPMI 1640 medium (Biochrom®-Merck Millipore) supplemented with 10% heating inactivated FBS (Biochrom®-Merck Millipore) and 1% antibiotic/antimitotic mixture (Invitrogen®). Three human glioblastoma (GBM) cell line models, two established and commercially available cell lines (U87MG and GAMG, kind gift from Rui M. Reis) and one primary GBM culture (GLIB) were also used. GBM cells were cultures in DMEM (Biochrom-Merck Millipore), all supplemented with 10% FBS. The Renal cell carcinoma cell lines A498, 786-O, Caki-2 and HK2 were obtained from ATCC. The cancer cell line A498 was cultured in MEM medium (Biochrom®-Merck Millipore), 786-O was cultured in RPMI 1640 medium (Biochrom®-Merck Millipore), Caki-2 was cultured in Mc Coys medium (Biochrom®-Merck Millipore) and HK2 was cultured in RPMI 1640 medium (Biochrom®-Merck Millipore). All the media were supplemented with 10% heat inactivated FBS (Biochrom®-Merck Millipore) and 1% antibiotic/antimitotic mixture (Invitrogen®). All cells were grown in a humidified incubator at 37° C. and 5% CO2. […]

[2] = system: TNBC cell line MDA-MB-468; assay: Cell viability assay (MTS), MDA-MB-468; type: cell-based; details: Homo sapiens, 72 h incubation
Text: In an embodiment, for a comparison study, monomers and respective dimers were selected and further evaluated in Hs578t and MDA-MB-468 breast cell lines. […] These cell lines correspond to the basal-like subtype of breast cancer, included in the known triple negative subtype, since they are negative for Estrogen receptor (ER), progesterone receptor (PR) and Human epidermal growth factor receptor 2 (HER2) molecular markers. The clinical behaviour of these breast cancer subtype is very aggressive and there is still no specific molecular therapy available.
as §2

MCF-7 cells = assay: Wound-healing assay, MCF-7 cell migration; type: cell-based, human; details: for cell migration less than the control: after 72 hours of treatment, IC50 (and ½IC50) concentration
Description: In an embodiment, the effect of the four selected compounds (MC408, MC409, MC406 and MC421) was further evaluated on cell migration (FIG. 1). MCF-7 cells were treated with the respective IC50 and half of the IC50 values for 72 hours and the wound-healing assay was performed. Half of the IC50 concentration was used for each compound to evaluate concentration-dependent effects. […] Results are presented as mean±SD of at least three independent experiments, *p<0.05; **p<0.01; ***p<0.001; ****p<0.0001 compared to control (DMSO, 0.5%).
In an embodiment, cell migration was assessed by the wound-healing assay that mimics the process of cell migration during wound-healing in vivo. This method is based on making a scratch, simulating a wound in a cell monolayer, capturing the images at the beginning and regular intervals during cell migration process to close the wound and comparing the images to quantify the cell migration rate. MCF-7 and Caki-2 cells were plated in 6-well plates at a density of 9.0×10^5 and 3.0×10^5 per 2 mL, respectively, and grown overnight at 37° C. in a 5% CO2 humidified atmosphere. A 200 μL pipette tip was used to make two scratches in a layer of confluent cells. Cells were gently washed once with 500 μL of PBS. MCF-7 cells were treated with compounds at the respective IC50, ½IC50, or 0.5% DMSO (control), for 72 hours. At 0, 12, 24, 48 and 72 hours, specific wound sites (four positions for each wound) were photographed. […] Images were captured at 100× magnification using an Olympus IX51 inverted microscope equipped with an Olympus DP20 Digital Camera System. Assessment of five migration distances was performed using BeWound 1.7.1 and the percentage of cell migration normalized to the control was plotted using GraphPad Prism 6 software. Three independent experiments were performed for each compound. The significance of the difference between different groups was determined with Student t-test.

[3] = system: acute leukemia cell line Jurkat; assay: Cell viability MTS assay, Jurkat; type: cell-based; details: Homo sapiens, 72 hours
Description: as §1, §2

[4] = system: A498 rapamycin-resistant cells; assay: BrdU proliferation assay, A498 rapamycin-resistant; type: cell-based; details: 24 and 48 hours, IC50 and ½IC50
A498 parental cells = assay: BrdU proliferation assay, A498 parental; type: cell-based; details: 24 and 48 hours, IC50 and ½IC50

Structure (SMILES)	effect on cell proliferation (BrdU) [1]	IC50 (glioma cell line GL18) [µM]	IC50 [2] [nM]	cell migration less than the control (MCF-7 cells)	IC50 [3] [µM]	effect on cell proliferation (BrdU) [4]	effect on cell proliferation (BrdU) (A498 parental cells)	decrease of percentage of cell migration relative to control (MCF-7 cells; after 12 hours, IC50 and ½IC50, control 0.5% DMSO)
COc1cccc2c1Oc1nc(-c3ccccc3)[nH]c1C2 [MC350, 5-methoxy-2-phenyl-3,9-dihydrochromeno[2,3-d]imidazoles]	decrease cell proliferation							
COc1cccc2c1Oc1nc(-c3ccc(F)cc3)[nH]c1C2C1c2cccc(OC)c2Oc2nc(-c3ccc(F)cc3)[nH]c21 (centres unmarked) [MC406, 2,2′-bis(4-fluorophenyl)-5,5′-dimethoxy-1,1,9,9′-tetrahydro-9,9′-bichromeno[2,3-]imidazoles]		0.3	320	20%	0.12			
COc1cccc2c1Oc1nc(-c3ccc(Br)cc3)[nH]c1C2 [MC408, 2-(4-bromophenyl)-5-methoxy-3,9-dihydrochromeno[2,3-d]imidazoles]		1.6	27	20%	0.19	significant decrease in cell proliferation	significant decrease in cell proliferation	
COc1cccc2c1Oc1nc(-c3ccc(F)cc3)[nH]c1C2 [MC409, 2-(4-fluorophenyl)-5-methoxy-3,9-dihydrochromeno[2,3-d]imidazoles]		0.6	120	about 12%	0.37			about 40%
COc1cccc2c1Oc1nc(-c3ccc(O)cc3)[nH]c1C2 [MC413, 4-(5-methoxy-3,9-dihydrochromeno[2,3-d]imidazol-2-yl)phenol]	decrease cell proliferation					significant decrease in cell proliferation	significant decrease in cell proliferation	
COc1cccc2c1Oc1nc(-c3ccc(Br)cc3)[nH]c1C2C1c2cccc(OC)c2Oc2nc(-c3ccc(Br)cc3)[nH]c21 (centres unmarked) [MC421, 2,2′-bis(4-bromophenyl)-5,5′-dimethoxy-1,1,9,9′-tetrahydro-9,9′-bichromeno[2,3-]imidazoles]	decrease cell proliferation	0.2	440	13%	0.18	significant decrease in cell proliferation	significant decrease in cell proliferation	
